Test results published in patent US20210267739A1, “DEVICES AND METHODS FOR CONTINUOUS DRUG DELIVERY VIA THE MOUTH” (SynAgile Corporation, priority 2013, published 2021).

Tested on: mouth of healthy subject
Experiment: not given
Assay type: in vivo
Details: 24 hours post-infusion
Protocol: The infusion was made into the cheek pouch of the lower left jaw, between the gum and the cheek. The pump infused the drug for 8 hours over a total period of 9 hours and 10 minutes.
The solution was infused using a Cane CronoPAR pump. […] The drug infusion was continuous, but was stopped during lunch for a period of 70 minutes. According to the manual, the Cane CronoPAR pump infuses the drug in boluses of 22 μL. […] Lodosyn tablets (25 mg carbidopa) were taken orally twice during the infusion period, for a total dose of 50 mg carbidopa.
The solution was infused in the cheek pouch of the lower right jaw, i.e., between the gum and the cheek.
(§1) The solution was infused using a Cane CronoPAR pump.
The infusion was made into the cheek pouch of the lower right jaw, between the gum and the cheek. The pump infused the drug for 5 hours and 45 minutes over a total period of 7 hours and 30 minutes.
The solution was infused using a Cane CronoPAR pump. […] Pump delivery was stopped during lunch for 1 hour 45 minutes for lunch. According to the manual, the Cane CronoPAR pump infuses the drug in boluses of 22 μL.
The same healthy subject infused into their mouth about 0.69 g LD and 0.07 g carbidopa, in 3.0 mL of 1.2M LD aqueous suspension, of unknown pH. The infusion was made into the cheek pouch of the lower right jaw, between the gum and the cheek. The pump infused the drug for 8 hours and 10 minutes over a total period of 9 hours and 5 minutes.
as §1

| Compound | condition of the mouth post-infusion |
| --- | --- |
| CCOC(=O)[C@@H](N)Cc1ccc(O)c(O)c1 [LDEE, levodopa ethyl ester] | dead, grey, peeling skin |

Same assay, conditions: during or after infusion, healthy subject

| Compound | tooth hypersensitivity |
| --- | --- |
| CCOC(=O)[C@@H](N)Cc1ccc(O)c(O)c1 [LDEE, levodopa ethyl ester] | hypersensitivity at the gum line of one tooth |

Same assay, conditions: healthy subject

| Compound | time post-infusion at which the tissue appears normal [days] |
| --- | --- |
| CCOC(=O)[C@@H](N)Cc1ccc(O)c(O)c1 [LDEE, levodopa ethyl ester] | 4 |

Same assay, conditions: infusion into cheek pouch, healthy subject

| Compound | irritation or discomfort in the mouth during the infusion |
| --- | --- |
| CCOC(=O)[C@@H](N)Cc1ccc(O)c(O)c1 [LDEE, levodopa ethyl ester] | no irritation or discomfort in the mouth |

Tested on: not given
Experiment: not given
Details: 37° C.; cited from earlier work

| Compound | pressure (absolute) at 37° C. |
| --- | --- |
| FCC(F)(F)F [1,1,1,2 tetrafluoroethane] | 938 kPa |
| FC(C(F)(F)F)C(F)(F)F [1,1,1,2,3,3,3 heptafluoropropane] | about 700 kPa |

Same assay, conditions: 55° C.; cited from earlier work

| Compound | pressure (absolute) at 55° C. |
| --- | --- |
| FCC(F)(F)F [1,1,1,2 tetrafluoroethane] | 1,493 kPa |
| FC(C(F)(F)F)C(F)(F)F [1,1,1,2,3,3,3 heptafluoropropane] | 1,000 kPa |

Same assay, conditions: vapor pressure of propellant liquid at 37° C.; cited from earlier work

| Compound | Approximate Pressure, bars at 37° C. [bars] |
| --- | --- |
| CCOC [methyl ethyl ether] | 3 |
| FC1(F)C(F)(F)C(F)(F)C1(F)F [octafluorocyclobutane] | 4.3 |
| FC(F)(F)CC(F)(F)F [1,1,1,3,3,3 hexafluoropropane] | 4.0 |
| CCC(C)C [isopentane] | 1.4 |
| FCC(F)(F)F [1,1,1,2 tetrafluoroethane] | 9.3 |
| CC(F)F [1,1-difluoroethane] | 8.4 |
| C=CC [propene] | 15.5 |
| CCC [propane] | 12.8 |
| FCCF [1,2-difluoroethane] | 1.9 |
| C=CCC [Example 1-butene, 1-butene] | 4.2 |
| CC(C)(C)C [neopentane] | 2.4 |
| CC(C)F [2-fluoropropane] | 5 |
| CCCC [butane] | 3.5 |
| FC(C(F)(F)F)C(F)(F)F [1,1,1,2,3,3,3 heptafluoropropane] | 4.6 |
| CCCCF [1-fluorobutane] | 1.3 |
| CCCF [1-fluoropropane] | 4.1 |
| CCOCC [diethyl ether] | 1.1 |
| CC=CC [Example 2-butene, 2-butene] | 3.2 |
| CCC(C)F (stereo not drawn) [2-fluorobutane] | 1.6 |

Tested on: not listed separately
Experiment: Vapor pressures of propellant liquids
Assay type: physicochemical
Details: not given
Protocol: For propellant-driven pumps, it is preferred to use propellants whose pressure increases by less than about 80%, 60%, or 40% when the temperature is raised from 37° C. to 55° C. As examples, the pressure of Dupont Dymel HFC-134a (1,1,1,2-tetrafluoroethane) increases from 938 kPa (absolute) at 37° C. to 1,493 kPa (absolute) at 55° C., an increase of 59%. The pressure of Dupont Dymel HFC-227ea/P ([…]) increases from about 700 kPa (absolute) at 37° C. to 1,000 kPa (absolute) at 55° C., an increase of 42%. In order to minimize the effect of temperature fluctuations on the propellants, a number of methods can be employed. In one embodiment, an insulating material can be used to decrease the sensitivity to changes in ambient temperature by insulating the propellant and drug reservoirs with materials of low thermal conductivity. Materials such as closed cell neoprene foams, can be used in this embodiment. In another embodiment, a material with very low thermal conductivity can be utilized, such as a ceramic.

| Compound | increase of pressure from 37° C. to 55° C. [%] |
| --- | --- |
| FCC(F)(F)F [1,1,1,2 tetrafluoroethane] | 59 |
| FC(C(F)(F)F)C(F)(F)F [1,1,1,2,3,3,3 heptafluoropropane] | 42 |

Tested on: mouth of healthy subject
Experiment: Salivation and swallowing during intra-oral infusion
Assay type: in vivo, human
Details: during infusion
Protocol: The subject recorded the number of times that they swallowed over two five minute periods. They swallowed 10 and 11 times during these two five minute periods, equal to an average rate of 2.1 swallows per minute. By contrast, in two other 5 minute periods when the subject was not infusing the drug, they swallowed 6 times and 5 times, equal to an average rate of 1.1 swallows per minute.
During two five-minute periods the subject recorded the number of times that they swallowed during the infusion. They swallowed 6 times during each of these two five minute periods, equal to an average rate of 1.2 swallows per minute. This is consistent with the previously measured rate of 1.1 swallows per minute observed when not infusing a drug and is half the 2.1 swallows per minute rate the subject observed when infusing LDEE.

| Compound | stimulation of salivation |
| --- | --- |
| CCOC(=O)[C@@H](N)Cc1ccc(O)c(O)c1 [LDEE, levodopa ethyl ester] | stimulated in the subject salivation |

Same assay, conditions: two five minute periods

| Compound | average rate of swallowing during infusion [swallows per minute] |
| --- | --- |
| CCOC(=O)[C@@H](N)Cc1ccc(O)c(O)c1 [LDEE, levodopa ethyl ester] | 2.1 |

Tested on: not given
Experiment: not given
Details: in vivo; cited from earlier work

| Compound | plasma half-life [h] |
| --- | --- |
| Cc1ccc(C(=O)c2cc(O)c(O)c([N+](=O)[O-])c2)cc1 [Tolcapone] | 2 to 3 |
| CCN(CC)C(=O)/C(C#N)=C/c1cc(O)c(O)c([N+](=O)[O-])c1 [Entacapone] | 0.4 to 0.7 |
